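Where inhibition never reached the appropriate level, the endpoint shown equals the highest concentration tested. Otherwise, values were interpolated linearly from a five-concentration, 48-hour dose response in 96-well plates. GI50 is the concentration that inhibits growth by half. TGI: concentration producing complete growth inhibition.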
Tests used:
Test in all cases: NCI-60 cell line screen, 48 h
[1] = test system: HT29 colon
[2] = test system: BT-549 breast
[3] = test system: A498 renal
[4] = test system: MALME-3M melanoma
[5] = test system: COLO 205 colon
[6] = test system: UO-31 renal
[7] = test system: UACC-257 melanoma
[8] = test system: DU-145 prostate
[9] = test system: PC-3 prostate
[10] = test system: MCF7 breast
[11] = test system: HCT-15 colon
[12] = test system: HOP-62 NSCLC
[13] = test system: OVCAR-5 ovarian
[14] = test system: UACC-62 melanoma
[15] = test system: NCI/ADR-RES ovarian
[16] = test system: SF-295 CNS
[17] = test system: SR leukemia
[18] = test system: SNB-19 CNS
[19] = test system: NCI-H23 lung
[20] = test system: SNB-75 CNS
[21] = test system: SN12C renal
[22] = test system: SK-MEL-5 melanoma
[23] = test system: OVCAR-8 ovarian
[24] = test system: 786-0 renal
[25] = test system: T-47D breast
[26] = test system: NCI-H522 lung
[27] = test system: HCC-2998 colon
[28] = test system: HCT-116 colon
[29] = test system: MDA-MB-231 breast
[30] = test system: HS 578T breast
[31] = test system: U251 CNS
[32] = test system: M14 melanoma
[33] = test system: TK-10 renal
[34] = test system: SF-268 CNS
[35] = test system: RPMI-8226 leukemia
[36] = test system: NCI-H460 lung
[37] = test system: RXF 393 renal
[38] = test system: IGROV1 ovarian
[39] = test system: A549 NSCLC
[40] = test system: ACHN renal
[41] = test system: OVCAR-3 ovarian
[42] = test system: SW-620 colon
[43] = test system: MOLT-4 leukemia
[44] = test system: CAKI-1 renal
[45] = test system: EKVX NSCLC
[46] = test system: SK-MEL-28 melanoma
[47] = test system: SK-OV-3 ovarian
[48] = test system: SF-539 CNS
[49] = test system: NCI-H226 lung
[50] = test system: CCRF-CEM leukemia
[51] = test system: MDA-MB-435
[52] = test system: LOX IMVI melanoma
[53] = test system: KM12 colon
[54] = test system: OVCAR-4 ovarian

With `N#Cc1c(N)nc(NCc2ccccc2)c(C#N)c1-c1ccc(Cl)cc1` as the compound, how does the GI50 [1] read?
The GI50 was 22.3 µM.

What about the TGI [1] of the same compound?
The TGI was > 100 µM.

And the GI50 [2]?
The GI50 was 19.6 µM.

And the TGI [2]?
Its TGI is 60.4 µM.

What about the GI50 [3] of the same compound?
The GI50 was 10.4 µM.

What about the TGI [3] of the same compound?
The TGI was 26.4 µM.

And the GI50 [4]?
The GI50 was 14.4 µM.

And the TGI [4]?
Its TGI is 54.5 µM.

And the GI50 [5]?
The GI50 was 46.9 µM.

And the TGI [5]?
The TGI was > 100 µM.

And the GI50 [6]?
Its GI50 is 31.9 µM.

What about the TGI [6] of the same compound?
The TGI was > 100 µM.

And the GI50 [7]?
Its GI50 is 67.9 µM.

And the TGI [7]?
The TGI was > 100 µM.

And the GI50 [8]?
The GI50 was 17.7 µM.

What about the TGI [8] of the same compound?
Its TGI is 55.7 µM.

And the GI50 [9]?
The GI50 was 17.9 µM.

What about the TGI [9] of the same compound?
The TGI was 48.7 µM.

And the GI50 [10]?
Its GI50 is 13.8 µM.

What about the TGI [10] of the same compound?
The TGI was 83.1 µM.

What about the GI50 [11] of the same compound?
Its GI50 is 18.8 µM.

What about the TGI [11] of the same compound?
Its TGI is > 100 µM.

And the GI50 [12]?
The GI50 was 16.1 µM.

And the TGI [12]?
Its TGI is 31.2 µM.

And the GI50 [13]?
The GI50 was 24.2 µM.

What about the TGI [13] of the same compound?
Its TGI is 76.1 µM.

And the GI50 [14]?
The GI50 was 14.7 µM.

And the TGI [14]?
Its TGI is 33.5 µM.

What about the GI50 [15] of the same compound?
The GI50 was 19.8 µM.

What about the TGI [15] of the same compound?
Its TGI is 60 µM.

And the GI50 [16]?
The GI50 was 14.2 µM.

What about the TGI [16] of the same compound?
Its TGI is 34.4 µM.

And the GI50 [17]?
The GI50 was 13.3 µM.

And the TGI [17]?
The TGI was 52.8 µM.

What about the GI50 [18] of the same compound?
Its GI50 is 31.6 µM.

What about the TGI [18] of the same compound?
Its TGI is > 100 µM.

And the GI50 [19]?
The GI50 was 22.8 µM.

What about the TGI [19] of the same compound?
The TGI was 80 µM.

And the GI50 [20]?
The GI50 was 22.1 µM.

And the TGI [20]?
Its TGI is 72.3 µM.

And the GI50 [21]?
Its GI50 is 16.1 µM.

And the TGI [21]?
Its TGI is 38.3 µM.

What about the GI50 [22] of the same compound?
Its GI50 is 25.9 µM.

What about the TGI [22] of the same compound?
The TGI was > 100 µM.

What about the GI50 [23] of the same compound?
The GI50 was 19 µM.

What about the TGI [23] of the same compound?
Its TGI is 57.2 µM.

What about the GI50 [24] of the same compound?
The GI50 was 20 µM.

What about the TGI [24] of the same compound?
The TGI was 38.6 µM.

And the GI50 [25]?
The GI50 was 27.3 µM.

What about the TGI [25] of the same compound?
Its TGI is > 100 µM.

And the GI50 [26]?
The GI50 was 20.9 µM.

What about the TGI [26] of the same compound?
The TGI was 57.5 µM.

What about the GI50 [27] of the same compound?
The GI50 was 71.1 µM.

And the TGI [27]?
Its TGI is > 100 µM.

What about the GI50 [28] of the same compound?
The GI50 was 15.8 µM.

What about the TGI [28] of the same compound?
The TGI was 41.3 µM.

And the GI50 [29]?
The GI50 was 14.2 µM.

What about the TGI [29] of the same compound?
Its TGI is 33.2 µM.

And the GI50 [30]?
The GI50 was 15.6 µM.

And the TGI [30]?
Its TGI is 40.4 µM.

What about the GI50 [31] of the same compound?
The GI50 was 12.4 µM.

And the TGI [31]?
Its TGI is 26.9 µM.

And the GI50 [32]?
Its GI50 is 20 µM.

And the TGI [32]?
The TGI was 99.7 µM.

What about the GI50 [33] of the same compound?
The GI50 was 14.4 µM.

What about the TGI [33] of the same compound?
The TGI was 32.8 µM.

What about the GI50 [34] of the same compound?
The GI50 was 14.3 µM.

What about the TGI [34] of the same compound?
The TGI was 35.6 µM.

What about the GI50 [35] of the same compound?
The GI50 was 18.9 µM.

And the TGI [35]?
The TGI was 97.1 µM.

And the GI50 [36]?
The GI50 was 10.2 µM.

What about the TGI [36] of the same compound?
The TGI was 28.7 µM.

And the GI50 [37]?
The GI50 was 26.5 µM.

And the TGI [37]?
Its TGI is 74.1 µM.

What about the GI50 [38] of the same compound?
Its GI50 is 13.5 µM.

And the TGI [38]?
Its TGI is 32.4 µM.

What about the GI50 [39] of the same compound?
Its GI50 is 28.3 µM.

And the TGI [39]?
The TGI was > 100 µM.

What about the GI50 [40] of the same compound?
The GI50 was 13.4 µM.

What about the TGI [40] of the same compound?
Its TGI is 32.8 µM.

And the GI50 [41]?
The GI50 was 14.7 µM.

And the TGI [41]?
The TGI was 37.1 µM.

What about the GI50 [42] of the same compound?
The GI50 was 16.2 µM.

And the TGI [42]?
Its TGI is 96.9 µM.

And the GI50 [43]?
The GI50 was 34.3 µM.

What about the TGI [43] of the same compound?
The TGI was > 100 µM.

And the GI50 [44]?
Its GI50 is 20.1 µM.

What about the TGI [44] of the same compound?
The TGI was 46.7 µM.

And the GI50 [45]?
The GI50 was 27.3 µM.

And the TGI [45]?
The TGI was 79 µM.

And the GI50 [46]?
The GI50 was 25.9 µM.

What about the TGI [46] of the same compound?
The TGI was > 100 µM.

And the GI50 [47]?
The GI50 was 33.2 µM.

And the TGI [47]?
The TGI was > 100 µM.

And the GI50 [48]?
The GI50 was 25.9 µM.

What about the TGI [48] of the same compound?
The TGI was 68.1 µM.

And the GI50 [49]?
Its GI50 is 10.6 µM.

And the TGI [49]?
Its TGI is 31.2 µM.

What about the GI50 [50] of the same compound?
The GI50 was 28.2 µM.

What about the TGI [50] of the same compound?
The TGI was > 100 µM.

What about the GI50 [51] of the same compound?
The GI50 was 15.7 µM.

And the TGI [51]?
Its TGI is 43.6 µM.

What about the GI50 [52] of the same compound?
The GI50 was 12.4 µM.

And the TGI [52]?
Its TGI is 29.3 µM.

And the GI50 [53]?
Its GI50 is 25.2 µM.

And the TGI [53]?
The TGI was > 100 µM.

What about the GI50 [54] of the same compound?
The GI50 was 9.57 µM.

What about the TGI [54] of the same compound?
Its TGI is > 100 µM.

Reference: PubChem BioAssay (NCI)
